Patent US20230414826A1, “FIBRIN HYDROGELS” (Mayo Foundation for Medical Education and Research, priority 2020, published 2023)

Target: T1, fibrin gels (40 mg/mL fibrinogen, 33 U/mL thrombin) (Homo sapiens, UniProt P02671+P02675+P02679)
T1 construct: purchased Ethicon (Evicel)
T1 sequence (P02671 20-644 isoform P02671-2 limits assumed): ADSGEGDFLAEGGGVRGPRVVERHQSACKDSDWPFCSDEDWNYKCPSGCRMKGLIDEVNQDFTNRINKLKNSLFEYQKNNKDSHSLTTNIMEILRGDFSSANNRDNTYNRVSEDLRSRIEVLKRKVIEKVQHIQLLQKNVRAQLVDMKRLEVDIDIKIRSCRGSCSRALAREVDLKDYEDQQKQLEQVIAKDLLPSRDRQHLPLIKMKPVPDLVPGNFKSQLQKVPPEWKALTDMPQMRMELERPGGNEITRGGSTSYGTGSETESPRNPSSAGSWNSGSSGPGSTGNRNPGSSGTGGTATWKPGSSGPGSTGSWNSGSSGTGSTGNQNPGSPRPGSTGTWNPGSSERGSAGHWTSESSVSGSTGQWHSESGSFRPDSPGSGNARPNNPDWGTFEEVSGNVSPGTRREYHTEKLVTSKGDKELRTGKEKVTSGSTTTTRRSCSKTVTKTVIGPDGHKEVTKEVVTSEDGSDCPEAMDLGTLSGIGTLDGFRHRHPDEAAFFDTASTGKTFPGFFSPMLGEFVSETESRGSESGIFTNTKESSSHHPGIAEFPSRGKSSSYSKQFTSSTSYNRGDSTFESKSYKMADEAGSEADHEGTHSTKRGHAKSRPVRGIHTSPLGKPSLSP
T1 sequence (P02675 45-491 limits assumed): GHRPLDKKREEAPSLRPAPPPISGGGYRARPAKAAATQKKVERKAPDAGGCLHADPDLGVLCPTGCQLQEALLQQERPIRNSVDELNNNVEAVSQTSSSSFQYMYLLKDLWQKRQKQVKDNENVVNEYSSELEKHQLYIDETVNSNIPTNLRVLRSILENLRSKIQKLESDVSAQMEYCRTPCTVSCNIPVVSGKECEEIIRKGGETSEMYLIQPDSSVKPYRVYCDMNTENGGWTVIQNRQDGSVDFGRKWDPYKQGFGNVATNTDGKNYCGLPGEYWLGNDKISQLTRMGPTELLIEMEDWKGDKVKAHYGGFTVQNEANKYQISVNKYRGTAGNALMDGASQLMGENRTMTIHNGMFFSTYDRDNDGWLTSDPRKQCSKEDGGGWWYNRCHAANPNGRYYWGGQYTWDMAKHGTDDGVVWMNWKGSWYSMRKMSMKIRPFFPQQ
T1 sequence (P02679 27-437 isoform P02679-2 limits assumed): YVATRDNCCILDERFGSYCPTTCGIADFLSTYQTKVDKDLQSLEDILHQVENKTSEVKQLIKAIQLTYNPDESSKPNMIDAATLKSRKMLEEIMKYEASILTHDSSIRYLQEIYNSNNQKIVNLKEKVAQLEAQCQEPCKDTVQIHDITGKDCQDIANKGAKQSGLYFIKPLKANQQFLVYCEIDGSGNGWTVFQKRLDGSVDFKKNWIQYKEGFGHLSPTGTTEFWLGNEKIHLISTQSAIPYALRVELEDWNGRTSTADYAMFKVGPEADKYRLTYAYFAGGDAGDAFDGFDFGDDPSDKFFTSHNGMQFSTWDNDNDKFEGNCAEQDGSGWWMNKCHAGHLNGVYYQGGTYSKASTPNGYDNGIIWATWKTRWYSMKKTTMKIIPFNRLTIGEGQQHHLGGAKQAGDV
Assay: Biexponential modeling of shear modulus (g′) versus time data
Details: biexponential model; for time shift parameter (xc): 0.12% dye, n=3; for G′1: fast rate associated parameter; for G′1 / r1 / G′2 / r2 / xc: avg ± sd, n = 3; for r1: fast rate constant; for G′2: slow rate associated parameter; for r2: slow rate constant; for xc: time shift parameter
Procedure: Modeling was performed using the shear modulus (g′) versus time data for each time sweep performed with gels with a final concentration of 40 mg/mL fibrinogen, 33 U/mL thrombin, and 0.12% dye. A biexponential model was used as described elsewhere (see, e.g., Wedgwood et al., Macromolecular Symposia, 334:117-25 (2013); and Moreno-Arotzena et al., Materials (Basel), 8:1636-51 (2015)). The following equation was used: […]
This equation model assumes a fast (1) and slow (2) kinetic rate. As such G′1 and G′2 are the respective rate associated parameters, r1 and r2 are the respective rates constants, and Xc is a time shift parameter. Modeling was performed using MATLAB (Mathworks; Natick, MA), using the model fit function. Parameters were defined with r1>r2 and xc as positive. Each sample run was best fitted to the model to generate an r^2>0.98.
Previous work has fitted fibrin gelation kinetics to a biexponential model (see, e.g., Moreno-Arotzena et al., Materials (Basel), 8:1636-51 (2015)). In this model, gelation, as measured by the shear modulus over time, consists of a fast and slow reaction rate. Each time sweep series was fitted to the biexponential model to determine the fast (1) and slow (2) associated parameters, reaction rates and time shift parameter (Table 2 and FIG. 9). The time shift parameters (xc) for the PBS, TB, EB, and PEG groups were 19.7±7.2, 62.9±9.7, 110.6±7.6, and 20.3±5.0 sec (n=3, p<0.001) (FIG. 9A). […] This re-affirms the shifted delay in gelation onset for TB and EB groups and confirms that the effect is not due to changes in molality. To understand if there is a change in reaction rates, the ratio of the fast to slow reaction rate was compared. The ratios, r1/r2, for PBS, TB, EB and PEG groups were […] (n=3, p=0.057) (FIG. 9B).

Row | Structure (SMILES) | time shift parameter (xc) | G′1 | r1 | G′2 | r2 | xc
1 | Cc1cc(-c2ccc(/N=N/c3ccc4c(S(=O)(=O)O)cc(S(=O)(=O)O)c(N)c4c3O)c(C)c2)ccc1/N=N/c1ccc2c(S(=O)(=O)O)cc(S(=O)(=O)O)c(N)c2c1O [EB, Evans Blue] | 110.6 ± 7.6 s | 927 ± 395 | 3720 ± 732 | 787 ± 210 | 739 ± 205 | 111 ± 8
2 | Cc1cc(-c2ccc(/N=N/c3c(S(=O)(=O)O)cc4cc(S(=O)(=O)O)cc(N)c4c3O)c(C)c2)ccc1/N=N/c1c(S(=O)(=O)O)cc2cc(S(=O)(=O)O)cc(N)c2c1O [TB, Trypan Blue] | 62.9 ± 9.7 s | 1555 ± 92 | 2679 ± 366 | 800 ± 186 | 455 ± 131 | 63 ± 10
